The source of these data is US9499551B2, “Substituted pyrrolo[2,3-b]pyridines for treating cancer or inflammatory diseases” (Confluence Life Sciences, Inc., priority 2014, dated 2016).

The target in assay [1] is T1, TAK1-TAB1 (Homo sapiens, UniProt O43318).
T1 sequence (O43318 with tags, fused parts or gaps limits assumed): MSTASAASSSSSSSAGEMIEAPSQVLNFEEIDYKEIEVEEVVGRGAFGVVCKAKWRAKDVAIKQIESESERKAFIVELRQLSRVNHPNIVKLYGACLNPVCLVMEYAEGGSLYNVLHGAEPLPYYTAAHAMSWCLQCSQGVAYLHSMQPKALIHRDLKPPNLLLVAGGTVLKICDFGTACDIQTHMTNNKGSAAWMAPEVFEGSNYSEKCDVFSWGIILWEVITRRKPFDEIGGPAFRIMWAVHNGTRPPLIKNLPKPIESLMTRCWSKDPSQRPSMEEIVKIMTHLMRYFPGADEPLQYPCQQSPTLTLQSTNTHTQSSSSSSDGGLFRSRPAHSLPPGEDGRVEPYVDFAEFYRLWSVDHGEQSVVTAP
As to the kind of experiment: TAK1-TAB1 binding inhibitory potency (LanthaScreen competitive binding assay, kinase tracer-236). The note with it: 10 nM TAK1-TAB1, 100 nM kinase tracer-236; read-out: TAK1-Tab Inhibition IC50. The procedure, abridged: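 Compounds were tested for TAK1-TAB1 binding in a 384-well LanthaScreen competitive FRET assay. TAK1-TAB1 (10 nM) and Eu-anti-his antibody (2 nM) were preincubated with compound for two hours before adding 100 nM Alexa Fluor 647 kinase tracer-236. The buffer was 20 mM HEPES pH 7.5, 10 mM MgCl2, 0.01% BSA, 0.0005% Tween-20 and 2% DMSO. IC50 came from 4-parameter logistic fits of emission ratio over an 11-point series from 20 μM to 0.34 nM.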

In assay [2] the test system is IL-6 Production in Human Peripheral Blood Mononuclear Cells (PBMC). As to the kind of experiment: LPS stimulated IL-6 production in PBMC cells. The note with it: read-out: IL-6 Production Inhibition IC50. The class given is cell-based. Here is the method: LPS Stimulated IL-6 Production in PBMC Cells:
Lipopolysaccharide (LPS) stimulated IL-6 Production in Human Peripheral Blood Mononuclear Cells (PBMC): The cellular efficacy of compound candidates is determined using peripheral blood mononuclear cells purified from human whole blood, based upon the methods of Burnette et al. (2009) Pharmacology, 84:42-60. PBMC produce a number of cytokines (IL6, IL8, IL1β and TNFα) in response to stimulation with LPS. To induce the production of inflammatory mediators, PBMC are plated at a final concentration of 2×10^5 cells/well in a 96 well flat bottom plate in DMEM medium supplemented with 10% fetal bovine serum, 100 units/ml penicillin and 100 μg/ml streptomycin (Gibco BRL Life Technologies). Cells are treated with or without inhibitors for 1-3 hrs then stimulated with 100 ng/ml LPS (serotype 011:B4, Sigma) for an additional 3 hrs at 37° C. with 5% CO2. The supernatants are removed and stored at −20° C. until they are to be assayed. The levels of inflammatory mediators are determined using commercial MSD cytokine kits (Meso Scale Discovery) as per the manufacturer's instructions. Standard curves are based on 7 steps of 4× serial dilutions, with a wide dynamic range of 10000 pg/ml to 2.4 pg/ml, and a blank. Lower limit of detection (LLOD) is calculated at the commonly used 3× the standard deviation of the blank.

The structures appear in SMILES notation.

Take `NC(=O)/C=C\C(=O)Nc1c[nH]c2ncc(-c3ccccc3)cc12` [Example 234, N^1--(5-phenyl-1H-pyrrolo[2,3-b]pyridin-3-yl)maleamide]: the results for the IC50 in assay [1] and in assay [2] were above 1 µM and at most 1 µM, respectively.

On to `CC(=O)/C=C/C(=O)Nc1c[nH]c2ncc(-c3ccccc3)cc12` [Example 240, (E)-4-oxo-N-(5-phenyl-1H-pyrrolo[2,3-b]pyridin-3-yl)pent-2-enamide], for which the IC50 in assay [1] and in assay [2] was at most 1 µM throughout.

With `CC(=O)c1cccc(-c2cnc3[nH]cc(/C=C/C(N)=O)c3c2)c1` [Example 244, (E)-3-(5-(3-acetylphenyl)-1H-pyrrolo[2,3-b]pyridin-3-yl)acrylamide], the IC50 in assay [1] and in assay [2] was at most 1 µM each time.

For the compound `CC(=O)c1ccc(-c2cnc3[nH]cc(/C=C/C(N)=O)c3c2)cc1` [Example 245, (E)-3-(5-(4-acetylphenyl)-1H-pyrrolo[2,3-b]pyridin-3-yl)acrylamide], the IC50 in assay [1] and in assay [2] was at most 1 µM throughout.

As to `CC(C)(O)c1cccc(-c2cnc3[nH]cc(/C=C/C(N)=O)c3c2)c1` [Example 246, (E)-3-(5-(3-(2-hydroxypropan-2-yl)phenyl)-1H-pyrrolo[2,3-b]pyridin-3-yl)acrylamide], the IC50 in assay [1] and in assay [2] was at most 1 µM throughout.

Take `CC(C)(O)c1ccc(-c2cnc3[nH]cc(/C=C/C(N)=O)c3c2)cc1` [Example 247, (E)-3-(5-(4-(2-hydroxypropan-2-yl)phenyl)-1H-pyrrolo[2,3-b]pyridin-3-yl)acrylamide]: the IC50 in assay [1] and in assay [2] was at most 1 µM in each case.

In the case of `NC(=O)/C=C/c1c[nH]c2ncc(-c3ccc(F)cc3F)nc12` [Example 248, (E)-3-(2-(2,4-difluorophenyl)-5H-pyrrolo[2,3-b]pyrazin-7-yl)acrylamide], the IC50 in assay [1] and in assay [2] was at most 1 µM each time.

Regarding `N#Cc1ccc(-c2cnc3[nH]cc(/C=C/C(N)=O)c3n2)cc1` [Example 249, (E)-3-(2-(4-cyanophenyl)-5H-pyrrolo[2,3-b]pyrazin-7-yl)acrylamide], the IC50 in assay [1] and in assay [2] was at most 1 µM in each case.

Take `NC(=O)/C=C/c1c[nH]c2ncc(-c3ccc(N4CCCC4)nc3)cc12` [Example 250, (E)-3-(5-(6-(pyrrolidin-1-yl)pyridin-3-yl)-1H-pyrrolo[2,3-b]pyridin-3-yl)acrylamide]: the IC50 in assay [1] and in assay [2] was at most 1 µM each time.

Regarding `CC(=O)/C=C/c1c[nH]c2ncc(-c3cccnc3)cc12` [Example 251, (E)-4-(5-(pyridin-3-yl)-1H-pyrrolo[2,3-b]pyridin-3-yl)but-3-en-2-one], the IC50 was at most 1 µM in assay [1] and above 1 µM in assay [2].

In the case of `NC(=O)/C=C/c1c[nH]c2ncc(-c3ccc(C(F)(F)F)cc3)cc12` [Example 252, (E)-3-(5-(4-(trifluoromethyl)phenyl)-1H-pyrrolo[2,3-b]pyridin-3-yl)acrylamide], the IC50 in assay [1] and in assay [2] was at most 1 µM each time.

With `NC(=O)/C=C/c1c[nH]c2ncc(-c3cc(C(F)(F)F)cc(C(F)(F)F)c3)cc12` [Example 253, (E)-3-(5-(3,5-bis(trifluoromethyl)phenyl)-1H pyrrolo[2,3-b]pyridin-3-yl)acrylamide], the IC50 in assay [1] and in assay [2] was at most 1 µM in each case.

In the case of `Cc1cc(-c2cnc3[nH]cc(/C=C/C(N)=O)c3c2)cc(C(C)(C)C)c1` [Example 256, (E)-3-(5-(3-(tert-butyl)-5-methylphenyl)-1H-pyrrolo[2,3-b]pyridin-3-yl)acrylamide], the IC50 in assay [1] and in assay [2] was at most 1 µM each time.

As to `COc1cc(OC2CCCC2)cc(-c2cnc3[nH]cc(/C=C/C(N)=O)c3c2)c1` [Example 257, (E)-3-(5-(3-(cyclopentyloxy)-5-methoxyphenyl)-1H-pyrrolo[2,3-b]pyridin-3-yl)acrylamide], the IC50 in assay [1] and in assay [2] was at most 1 µM each time.

As to `CC(C)(C)c1cc(-c2cnc3[nH]cc(/C=C/C(N)=O)c3c2)cc(C(C)(C)C)c1` [Example 258, (E)-3-(5-(3,5-di-tert-butylphenyl)-1H-pyrrolo[2,3-b]pyridin-3-yl)acrylamide], the IC50 in assay [1] and in assay [2] was at most 1 µM in each case.

For `NC(=O)/C=C/c1c[nH]c2ncc(-c3ccncc3)cc12` [Example 259, (E)-3-(5-(pyridin-4-yl)-1H-pyrrolo[2,3-b]pyridin-3-yl)acrylamide], the IC50 in assay [1] and in assay [2] was at most 1 µM throughout.

On to `CC(C)Oc1ccc(-c2cnc3[nH]cc(/C=C/C(N)=O)c3c2)cn1` [Example 260, (E)-3-(5-(6-isopropoxypyridin-3-yl)-1H-pyrrolo[2,3-b]pyridin-3-yl)acrylamide], for which the IC50 in assay [1] and in assay [2] was at most 1 µM throughout.

On to `N#Cc1ccc(-c2cnc3[nH]cc(/C=C/C(N)=O)c3c2)cn1` [Example 261, (E)-3-(5-(6-cyanopyridin-3-yl)-1H-pyrrolo[2,3-b]pyridin-3-yl)acrylamide], for which the IC50 in assay [1] and in assay [2] was at most 1 µM throughout.

As to `NC(=O)/C=C/c1c[nH]c2ncc(-c3ccc(C(=O)N4CCCCC4)cc3)cc12` [Example 262, (E)-3-(5-(4-(piperidine-1-carbonyl)phenyl)-1H-pyrrolo[2,3-b]pyridin-3-yl)acrylamide], the IC50 in assay [1] and in assay [2] was at most 1 µM throughout.

Regarding `NC(=O)/C=C/c1c[nH]c2ncc(-c3cnc4ccccc4c3)nc12` [Example 263, (E)-3-(2-(quinolin-3-yl)-5H-pyrrolo[2,3-b]pyrazin-7-yl)acrylamide], the IC50 in assay [1] and in assay [2] was at most 1 µM each time.

As to `CC(C)(C)C(=O)N1CCN(c2cnc3[nH]cc(/C=C/C(N)=O)c3c2)CC1` [Example 264, (E)-3-(5-(4-pivaloylpiperazin-1-yl)-1H-pyrrolo[2,3-b]pyridin-3-yl)acrylamide], the IC50 in assay [1] and in assay [2] was at most 1 µM in each case.

Regarding `CC1CCN(C(=O)c2ccc(-c3cnc4[nH]cc(/C=C/C(N)=O)c4c3)cn2)CC1` [Example 265, (E)-3-(5-(6-(4-methylpiperidine-1-carbonyl)pyridin-3-yl)-1H-pyrrolo[2,3-b]pyridin-3-yl)acrylamide], the IC50 in assay [1] is at most 1 µM; in assay [2], above 1 µM.

Consider `CC(C)(C)OC(=O)N1CCN(c2cnc3[nH]cc(/C=C/C(N)=O)c3c2)CC1` [Example 266, (E)-tert-butyl 4-(3-(3-amino-3-oxoprop-1-en-1-yl)-1H-pyrrolo[2,3-b]pyridin-5-yl)piperazine-1-carboxylate], for which the IC50 in assay [1] and in assay [2] was at most 1 µM in each case.

As to `NC(=O)/C=C/c1c[nH]c2ncc(N3CCN(C(=O)c4ccccc4)CC3)cc12` [Example 267, (E)-3-(5-(4-benzoylpiperazin-1-yl)-1H-pyrrolo[2,3-b]pyridin-3-yl)acrylamide], the IC50 is at most 1 µM in assay [1] and above 1 µM in assay [2].

Consider `CC(C)N1CCN(C(=O)c2ccc(-c3cnc4[nH]cc(/C=C/C(N)=O)c4c3)cc2)CC1` [Example 268, (E)-3-(5-(4-(4-isopropyl-piperazine-1-carbonyl)phenyl)-1H-pyrrolo[2,3-b]pyridin-3-yl)acrylamide], for which the IC50 in assay [1] and in assay [2] was at most 1 µM throughout.
